Source: ChEMBL document CHEMBL1159350, “Hemolytic steroid disulfates from the far eastern starfish Pteraster pulvillus” (J Nat Prod, 2003)

Experiment: Toxicity in mouse erythrocytes assessed as hemolytic activity
Type: cell-based, Erythrocyte

SMILES | HC50
CC(C)CCC[C@@H](COS(=O)(=O)O)[C@H]1CC[C@H]2[C@@H]3CC=C4C[C@H](OS(=O)(=O)O)CC[C@]4(C)[C@H]3CC[C@]12C.NCCc1ccc(O)cc1 | 33 µM
CC(C)CCC[C@@H](COS(=O)(=O)O)[C@H]1CC[C@H]2[C@@H]3CC[C@H]4[C@@H](O)[C@H](OS(=O)(=O)O)CC[C@]4(C)[C@H]3CC[C@]12C | 45 µM
CC(C)CCC[C@@H](COS(=O)(=O)O)[C@H]1CC[C@H]2[C@@H]3CC[C@H]4C[C@H](OS(=O)(=O)O)CC[C@]4(C)[C@H]3CC[C@]12C.NCCc1ccc(O)cc1.NCCc1ccc(O)cc1 | 18 µM
CC(C)CCC[C@@H](COS(=O)(=O)O)[C@H]1CC[C@H]2[C@@H]3CC[C@H]4C[C@H](OS(=O)(=O)O)CC[C@]4(C)[C@H]3CC[C@]12C | 10 µM
CC(C)CCC[C@@H](COS(=O)(=O)O)[C@H]1CC[C@H]2[C@@H]3CC=C4[C@@H](O)[C@H](OS(=O)(=O)O)CC[C@]4(C)[C@H]3CC[C@]12C | 80 µM
